The values below come from patent US20260256799A1, “INHIBITORS FOR TREATING SOLID TUMOURS” (UNIVERSITY OF SOUTHAMPTON, priority 2023, published 2026).

Molecules are shown by their SMILES.

In series [1] the test system is TC-1 cells + TGF-β1-treated murine lung fibroblasts (myoMLF). Description: Isograft model TC-1 + myoMLF (myoCAF-high tumours). In kind it is in vivo, C57/BL6 female mice. On the procedure: SMA immunohistochemistry (IHC; Sigma Aldrich; A2547) on FFPE tissues was performed as previously: in brief, tissues were fixed in 4% paraformaldehyde and embedded in paraffin. 4 μm sections were de-paraffinized, rehydrated and antigen retrieved for 20 minutes at 97° C. using a predefined program on the Dako PT links. Antigen retrieval was performed using Envision FLEX High pH. Endogenous peroxidase activity was blocked using 3% hydrogen peroxide. Mouse Ig blocking reagent (M.O.M kit vector labs) was applied for 1 hour. Primary antibody incubation (1:100) in M.O.M diluent (vector labs) was for 20 minutes. For secondary amplification, M.O.M. Biotinylated anti-Mouse IgG reagentwas applied for 10 minutes followed by Vectorstain elite ABC reagent (vector labs). Chromogenic visualization was completed with 2×5 minute washes in DAB and counterstaining with Haematoxylin. For IHC of CD8 (in house; YTS169), CD4 (BD; RM4-5) and F480 (AbD Serotec; CI:A3-1) tissues were frozen in OCT. 8 μm sections were fixed in 100% acetone for 10 minutes. Endogenous peroxidase activity was blocked using neat peroxidase suppressor (Peirce) for 15 minutes. Sections were blocked for 30 minutes with 2.5% goat serum. Primary antibodies were applied for 2 hours −CD8 (1:800), CD4 (1:100), F480 (1:100). Appropriate species HRP polymer (ImmunoPress, Vector Laboratories) was applied to sections for 30 minutes. Vector NovaRED chromagen substrate (Vector Laboratories) was applied for 2-10 minutes then counterstained with haematoxylin (Vector Laboratories) for 30 seconds. Images were captured using an Olympus CKX41 microscope with Cell B imaging software. % area of staining was calculated using Fiji software (java) by running the ‘color deconvolution’ tool analyzing H DAB. The image was appropriately thresholded based on the ‘color 2’ image. The same thresholding was applied to all images from the same experiment. Regions of interest (margin & core) were confirmed by a pathologist, and each point plotted represents the mean of a minimum of 4 independent fields of view (field diameter=2 mm) from margin and core (one section per mouse). The mean was calculated from 2 or 3 mice/experimental group.
Quantification of SMA staining in mouse tumours was carried out using color thresholding and deconvolution in Fiji. At least three independent fields of view (FoV) of at least three tumours were randomly selected by a consultant pathologist (GJT) to generate a mean value per tumour representing the SMA-positive area %, which was compared between treatment groups.
CD8 and CD4 IHC was performed on frozen tissue embedded in OCT using [YTS169 (CD8; in house) and RM4-5 (CD4; BD) (FIG. 6c & FIG. 12e). 8 μm sections were fixed in 100% acetone for 10 minutes and stained as previously shown. CD8 and CD4 IHC on FFPE was performed using 98941S and 25229S respectively (Cell Signaling; FIG. 6a,g,k,o and FIG. 12a-c,g & 13m,o) using the Leica Bond system according to the manufacturer's instructions (Protocol F mouse 4; HIER 20 MINUTES ER1; Temperature-Ambient; 1:100 dilution; 20 min of NGS blocking incubation). CD8 and CD4 T-cells were counted from ten randomly selected fields of view (FoV) from the tumour by a consultant pathologist (GJT).
All mouse experiments were performed according to national and international guidelines and were approved by the authors' institutional review board and the UK Home Office. Xenograft model: 6.7×10^5 PT cells±2×10^6 HFFF2 cells were resuspended in 100 μl PBS and injected s.c. in the flank of partially immunocompromised, male RAG1−/−C57BL/6 mice (3-5 months old). Isograft models: 0.5×10^5 TC-1 cells±3×10^5 TGF-β1-treated murine lung fibroblasts (myoMLFs) or 1×10^5 MC38 cells±5×10^5 TGF-β1-treated murine colon fibroblasts (myoMCFs) were resuspended in 100 μl PBS and injected s.c. in the flank of C57/BL6 female mice (6-8 weeks old). 5-8 animals for both models were used per group. […]

For series [2] the following is noted: monotherapy, dose escalation phase 1; cited from earlier work.
Where [3] appears, read: AZD0156 20 mg/Kg oral gavage daily.
The mark [4] stands for this setting: AZD0156, myoCAF-high TC-1 tumours.

For the compound `CN(C)CCCOc1ccc(-c2ccc3ncc4c(c3c2)n(C2CCOCC2)c(=O)n4C)cn1` [AZD0156], in series [1] (setting [3]), the “myofibroblast accumulation (SMA IHC)” value is on record as “suppressed” and the tumour growth result is reported as “slowed”. For the same compound, in series [1] (setting [4]), the “CD4 T-cell infiltration (IHC)” value is “unaffected” and the “location of CD8 T-cells, tumour periphery to tumour core (IHC)” value is “significant relocation”. Further, the “CD8 T-cell phenotype/function (flow cytometry)” value in series [1] (AZD0156, myoCAF-high tumours) is “did not affect”. For the same compound, the overall survival result in series [1] (AZD0156 daily at day 15-28) was “improved”. Moreover, the “intratumoural myoCAF accumulation” value in series [1] (AZD0156 monotherapy in the RAH vaccine experiment) is “effective in reducing”. Further, in series [2], the adverse effects entry is “not yet reporting to be associated with adverse effects”.
